One data set concerns the target PXR (Homo sapiens (Human), UniProt O75469). Description: Potential for PXR activation in DPX2 cells. It is filed as cell-based. To be noted: 30 μM, versus 20 μM rifampicin. How it is done:
DMSO solutions of the compounds to be tested and the control compound rifampicin solution were prepared, and diluted with Puracyp dosing medium (Puracyp, Cat. No: D-500-100) at 37° C. to respective test concentrations. The final concentrations of the compounds to be tested were 30 μM, 10 μM, and 1 μM, respectively, and the final concentration of rifampicin was 20 μM. The final concentration of DMSO in the test solution was 0.1%. In addition, 0.1% DMSO solution prepared with Puracyp dosing medium was used as a control.
DPX2 cells were suspended in Puracyp Culture medium (Puracyp, Cat No.: C-500-100) at a cell density of 4.5×10^5 cell/mL. Then, the suspension was placed on a 96-well culture plate at 100 μL/well for incubation at 37° C. for 24 h. The medium in appropriate wells of the 96-well culture plate was replaced (three times per well) by 100 μL of solution of the compounds to be tested and a control compound solution. After replacement, the plate was incubated at 37° C. for 24 h. The medium was then replaced (three times per well) by a newly prepared test solution of the compounds to be tested and a rifampicin test solution, and the plate was incubated at 37° C. for 24 h.
The medium in the 96-well culture plate was pipetted and washed twice with PBS. To each well, 50 μL of reagent diluted as required by CellTiter-Fluor™ Cell Viability Assay Kit (Promega, Cat. No.: G6082) was added, and incubated at 37° C. for 0.5 h. The 96-well plate was cooled to room temperature, and the fluorescence value of each well at 505 nm was measured in a fluorescence mode with a microplate reader at an excitation wavelength of 400 nm. Then, 50 μL of reagent prepared as required by One-Glo Luciferase Assay System (Promega, Cat. No.: E6120) was added to each well, and the mixture was incubated at room temperature for 5 min. The luminescence value of each well was read by using a lumen meter.
Normalized luciferase activity was determined by RLU/RFU, and the RLU and RFU of the samples were mean values of duplicate wells, respectively.
[formula] • Fold of activation: fold of activation of normalized luciferase; • RLUtest: measured luminescence value of test wells at each test dose of test compounds; • RLUvehicle: measured luminescence value of test wells when tested with the control DMSO solution; • RFUtest: measured fluorescence value of test wells at each test dose of test compounds; • RFUvehicle: measured fluorescence value of test wells when tested with the control DMSO solution.
The percentage of positive control was calculated as follows:
% Positive control=(fold activationtest compound−1)/(fold activationpositive control compound−1)×100% • % Positive control: percentage of PXR activation compared with 20 μM rifampicin activation at each test dose of test compounds; • Fold activationtest compound: fold of activation of normalized luciferase at each test dose of test compounds; • Fold activationpositive control compound: fold of activation of normalized luciferase of test compounds under 20 μM rifampicin.

The target in the next data set is CYP1A2 (Homo sapiens (Human), UniProt P05177). Description: CYP enzyme inhibition in pooled human liver microsomes (phenacetin). It is filed as in vitro ADME. How it is done:
Typical substrate metabolic responses of five major human CYP subtypes (CYP1A2, CYP2C9, CYP2C19, CYP2D6, CYP3A4) were evaluated using 150-donor pooled human liver microsomes (purchased from Corning, Cat. No.: 452117). The influence of different concentrations of each compound to be tested on metabolic responses of phenacetin (CYP1A2), diclofenac sodium (CYP2C9), S-mephenytoin (CYP2C19), bufuralol hydrochloride (CYP2D6), and midazolam (CYP3A4) was determined by liquid chromatography-mass spectrometry (LC/MS/MS). […] Then 200 μL of acetonitrile solution containing 3% formic acid and 40 nM internal standard verapamil was added and centrifuged at 4000 rpm for 50 min. The mixture was cooled on ice for 20 min and centrifuged at 4000 rpm for 20 min to precipitate the protein. Then 200 μL of supernatant was analyzed by LC-MS/MS. The peak area was calculated from the chromatogram. The residual activity ratio (%) was calculated according to the following equation: Peak area ratio=metabolite peak area/internal standard peak area Residual activity ratio (%)=peak area ratio of compounds-to-be-tested group/peak area ratio of blank group The half inhibitory concentration (IC50) for CYP was calculated by Excel XLfit 5.3.1.3.

Data set [1] is described as follows: Metabolic stability in vitro in rat hepatocytes. It is filed as in vitro ADME. To be noted: read-out: Intrinsic clearance.

Sequence of PXR (O75469 whole entry): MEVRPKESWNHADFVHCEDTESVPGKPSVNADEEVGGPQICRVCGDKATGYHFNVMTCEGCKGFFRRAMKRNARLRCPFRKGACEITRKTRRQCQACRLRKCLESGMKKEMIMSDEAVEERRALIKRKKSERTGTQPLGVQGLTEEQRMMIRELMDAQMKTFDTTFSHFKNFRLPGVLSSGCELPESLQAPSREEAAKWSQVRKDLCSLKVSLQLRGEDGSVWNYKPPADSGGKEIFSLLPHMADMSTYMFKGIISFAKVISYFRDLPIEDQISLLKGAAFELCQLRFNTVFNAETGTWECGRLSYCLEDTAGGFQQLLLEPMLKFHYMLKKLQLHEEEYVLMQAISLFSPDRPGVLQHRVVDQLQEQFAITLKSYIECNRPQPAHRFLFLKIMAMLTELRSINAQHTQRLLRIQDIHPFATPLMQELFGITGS
Sequence of CYP1A2 (P05177 whole entry): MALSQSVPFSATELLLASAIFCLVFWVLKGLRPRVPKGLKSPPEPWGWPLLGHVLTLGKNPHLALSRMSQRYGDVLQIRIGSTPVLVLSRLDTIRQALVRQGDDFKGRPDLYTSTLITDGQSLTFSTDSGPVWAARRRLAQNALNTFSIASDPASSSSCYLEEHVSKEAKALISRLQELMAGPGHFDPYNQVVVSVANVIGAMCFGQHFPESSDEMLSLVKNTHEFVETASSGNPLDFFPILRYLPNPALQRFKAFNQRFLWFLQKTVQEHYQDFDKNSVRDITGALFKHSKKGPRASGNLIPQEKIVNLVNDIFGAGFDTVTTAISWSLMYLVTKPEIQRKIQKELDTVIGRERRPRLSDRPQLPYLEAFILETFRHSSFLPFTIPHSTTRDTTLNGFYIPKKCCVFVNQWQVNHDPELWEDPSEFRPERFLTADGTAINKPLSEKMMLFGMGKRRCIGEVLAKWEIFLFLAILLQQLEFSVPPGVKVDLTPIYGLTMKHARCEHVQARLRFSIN

Usually IC50 stands for the point on the concentration scale where inhibition reaches its midpoint. Read a high IC50 as lower potency. `COc1ncnc(C2CC2)c1-c1ncc2c(n1)N(Cc1ccc(-c3nc(C(F)(F)F)cn3C)cc1)CC(=O)N2C` [Compound 11, 2-(4-cyclopropyl-6-methoxypyrimidin-5-yl)-5-methyl-8-(4-(1-methyl-4-(trifluoromethyl)-1H-imidazol-2-yl)benzyl)-7,8-dihydropteridin-6(5H)-one]: the “PXR activation (% Positive control)” value at PXR worked out at 14.0 % Positive control. Besides, on CYP1A2, the IC50 is above 30 µM. In addition, the hepatocyte CLint at 1 μM in data set [1] is below 1 µL/min/1e6 cells.

The values above are taken from patent US20240226107A1, “UBIQUITIN-SPECIFIC PROTEASE 1 (USP1) INHIBITOR” (SIMCERE ZAIMING PHARMACEUTICAL CO., LTD., priority 2021, published 2024).
